# Measurements as given in patent publication US20240010984A1, “SERUM-FREE MEDIUM FOR DIFFERENTIATION OF A PROGENITOR CELL” (Mosa Meat B.V., priority 2020, published 2024).
# Columns and labels:
# [1] = system: bovine muscle progenitor cells; assay: Serum-free myogenic differentiation with or without Notch pathway inhibition, brightfield microscopy (Example 5, FIG. 3); type: cell-based
# Description: Myogenic progenitor cells as disclosed in Example 2 were plated in Matrigel-coated (1:200 in PBS) plates at a seeding density of 40 k cells/cm^2 and cultured for 24 h in a serum-free proliferation medium as disclosed in Example 2. Myogenic differentiation was induced by adding an exemplary serum-free differentiation medium (Table 3) in the presence and absence of DAPT (gamma-Secretase inhibitor #ab120633, abcam) at 0 μM (absence of DAPT; control medium), 1 μM, 5 μM and 10 μM. Cells were imaged with brightfield microscopy and the differentiation phenotypes were compared.
# [2] = system: Bovine muscle progenitor cells; assay: Serum-free myogenic differentiation of bovine muscle progenitor cells into myocytes (Example 3, FIG. 1 and 2); type: cell-based, Bos taurus; settings: cells previously proliferated in serum-free proliferation medium, one inducer per medium (lactate 10 mM, LPA 5 uM, oxytocin 50 nM or glucagon 1 uM), different basal formulations
# Description: The DMEM/F12 1:1 or 10:1 or 1:0 or alpha-MEM or M199 medium was supplemented with albumin (recombinant human albumin from Richcore) at 0.5 mg/ml, insulin (recombinant human insulin, 10-365 from Peprotech) at 19.4 ug/ml, transferrin (recombinant human transferrin, 10-366 from Peprotech) at 10.7 ug/ml, sodium selenite (S5261 from SigmaAldrich) at 0.014 ug/ml, Ethanolamine from Sigma Aldrich cat nr E9508 at 4 ug/ml, ascorbic acid (L-ascorbic acid 2-phosphate sesquimagnesium salt hydrate, A8960 from SigmaAldrich) at 115.22 ug/ml, EGF (recombinant human EGF, AF-100-15 from Peprotech) at 10 ng/ml and one of the following inducers: lactate (Sodium L-lactate, 71718 from SigmaAldrich) at 10 mM, LPA (Oleoyl-L-α-lysophosphatidic acid sodium salt, L7260 from SigmaAldrich) at 5 uM, oxytocin (06379 from SigmaAldrich) at 50 nM, or glucagon (G2044 from SigmaAldrich) at 1 uM.
# Bovine muscle progenitor cells were isolated from a bovine muscle tissue (Bos taurus) and sorted based on their positive expression of CD29 as previously described (Ding et al., Sci. Rep., 17(8): 10808 (2018)). Muscle progenitor cells were propagated in a serum-free proliferation medium for at least 8 population doublings prior to differentiation. […]
Structure (SMILES),"myogenic differentiation of bovine muscle progenitor cells into myocytes compared to control medium without DAPT ([1]; DAPT 1 uM, 5 uM and 10 uM, serum-free differentiation medium of Table 3 (lactate 10 mM), FIG. 3)",number of cells that fuse into myotubes ([1]; DAPT added during myogenic differentiation),induction of serum-free myogenic differentiation [2]
C[C@H](NC(=O)Cc1cc(F)cc(F)c1)C(=O)N[C@H](C(=O)OC(C)(C)C)c1ccccc1 [DAPT],improved myogenic differentiation,increases the number of cells that fuse into myotubes,–
"C[C@H](O)C(=O)[O-].[Na+] [lactate, Sodium L-lactate]",–,–,induction of serum-free myogenic differentiation could be achieved
